Our source for the IC50 values is US20240336588A1, “COMPOSITIONS AND METHODS FOR ANTIOXIDANT AND ANTI-INFLAMMATORY THERAPEUTICS” (AVANTI BIOSCIENCES INC., priority 2021, published 2024).

The structures appear in SMILES notation. Bounds are passed on as bounds.

This experiment has as its target DYRK1A (HT-497, 6×His tagged rat truncated DYRK1A isoform X1 residues 1-497) (Rattus norvegicus (Rat), UniProt Q63470). As to the kind of experiment: DYRK1A ELISA assay (HT-PRD phosphorylation). It counts as biochemical. As to conditions: 100 µM ATP, 5 ng HT-497, 30 min at 30° C. The protocol: Compounds of Table 1, above, were examined in vitro for activity against DYRK1A, DYRK1B, DYRK2 via an ELISA assay.
DYRK1A assay. […] After blocking, wells were washed extensively with dilution buffer before subjecting to phosphorylation. […] At the end point, wells were washed with ˜350 μl dilution buffer three times to terminate the reaction. […] Each point was run in quadruplicate with DMSO present in all assays at 0.2% final concentration. […] HT-PRD phosphorylation was subsequently determined by the sandwich antibody staining protocol, first with 100 μl mouse mAb 3D3 specific for detecting DYRK1A-phosphorylated PRD (60 min at room temperature) then with 100 μl alkaline phosphatase (AP)-linked anti-mouse secondary antibody (60 min at room temperature), followed by colorimetric reaction with 100 μl PNPP solution (PNPP substrate tablet, Thermo Fisher). […] The readings were then recorded for subsequent IC50 calculation. The DYRK1A assay protocol can also support DYRK1B and DYRK2 phosphorylation reactions in the enzyme concentration-dependent manner; therefore, the method was adapted for measuring the activity of candidate compounds against DYRK1B and DYRK2. For DYRK2, the reactions were performed as described above with 6 ng HT-DYRK2 (6×His tagged full-length human DYRK2 isoform 1). For DYRK1B, the assays were also similarly conducted but with 70 ng GST-DYRK1B (glutathione S-transferase tagged full length human DYRK1B isoform p65) and an extended kinase reaction time of 60 min.
Dilution factors for both mAb 3D3 and secondary antibody were pre-determined for each batch of antibody to ensure that neither antibody was limiting in the assay.
Data transformation, calculation, plotting, curve fitting, and IC 50 calculation were performed in KaleidaGraph (http://www.synergy.com/wordpress_650164087; Mac version 4.1). Data was corrected for background (readings from wells with only PNPP) before subsequent manipulations. […] The resulting residual activity was then plotted against its corresponding inhibitor concentrations in semi-log graph and the plot was fit to the sigmoidal equation, y=a+(b−a)/(1+(x/c)^d), for IC50 calculation.
For the molecule `O=C(O[C@@H]1Cc2c(O)cc(O)cc2O[C@H]1c1cc(O)c(O)cc1F)c1cc(O)c(O)c(O)c1F` [Compound 48, (2S,3R)-2-(2-fluoro-4,5-dihydroxyphenyl)-5,7-dihydroxychroman-3-yl 2-fluoro-3,4,5-trihydroxybenzoate], the IC50 is greater than 0.1 µM.

As to `O=C(O[C@@H]1Cc2c(O)cc(O)cc2O[C@@H]1c1cc(O)c(O)c(O)c1)c1ccn(O)c(=O)c1` [Compound 26, (2R,3R)-5,7-dihydroxy-2-(3,4,5-trihydroxyphenyl)chroman-3-yl 1-hydroxy-2-oxo-1,2-dihydropyridine-4-carboxylate], the IC50 was greater than 1 µM.

As for `Cc1c(C(=O)O[C@@H]2Cc3c(O)cc(O)cc3O[C@H]2c2cc(O)c(O)c(O)c2)ccc(O)c1O` [Compound 63, (2S,3R)-5,7-dihydroxy-2-(3,4,5-trihydroxyphenyl)chroman-3-yl 3,4-dihydroxy-2-methylbenzoate], the half-inhibitory concentration (IC50) was greater than 0.1 µM.

For `O=C(O[C@@H]1Cc2c(O)cc(O)cc2O[C@H]1c1cc(O)c(O)cc1F)c1cc(O)c(O)c(O)c1` [Compound 45, (2S,3R)-2-(2-fluoro-4,5-dihydroxyphenyl)-5,7-dihydroxychroman-3-yl 3,4,5-trihydroxybenzoate], the IC50 is greater than 0.1 µM.

With `O=C(O[C@@H]1Cc2c(O)cc(O)cc2O[C@H]1c1ccc(O)c(O)c1)c1cc(O)c(O)c(O)c1` [Compound 7, (2S,3R)-2-(3,4-dihydroxyphenyl)-5,7-dihydroxychroman-3-yl 3,4,5-trihydroxybenzoate], the IC50 is greater than 0.1 µM.

As to `Cc1cc(O)c(O)cc1[C@@H]1Oc2cc(O)cc(O)c2C[C@H]1OC(=O)c1cc(O)c(O)c(O)c1F` [Compound 52, (2S,3R)-2-(4,5-dihydroxy-2-methylphenyl)-5,7-dihydroxychroman-3-yl 2-fluoro-3,4,5-trihydroxybenzoate], the IC50 was greater than 0.1 µM.

Regarding `O=C(O[C@@H]1Cc2c(O)cc(O)cc2O[C@H]1c1cc(O)c(O)c(O)c1)c1cc(O)c(O)cc1O` [Compound 42, (2S,3R)-5,7-dihydroxy-2-(3,4,5-trihydroxyphenyl)chroman-3-yl 2,4,5-trihydroxybenzoate], the half-inhibitory concentration (IC50) was greater than 0.1 µM.

As for `O=C(O[C@@H]1Cc2ccccc2C[C@H]1c1cc(O)c(O)c(O)c1)c1cc(O)c(O)c(O)c1` [Compound 53, (2R,3S)-3-(3,4,5-trihydroxyphenyl)-1,2,3,4-tetrahydronaphthalen-2-yl 3,4,5-trihydroxybenzoate], the IC50 is greater than 1 µM.

Regarding `CS(=O)(=O)Nc1ccc(C(=O)O[C@@H]2Cc3c(O)cc(O)cc3O[C@H]2c2cc(O)c(O)c(O)c2)cc1O` [Compound 37, (2S,3R)-5,7-dihydroxy-2-(3,4,5-trihydroxyphenyl)chroman-3-yl 3-hydroxy-4-(methylsulfonamido)benzoate], the IC50 is greater than 1 µM.

On to `CCNC(=O)Oc1cc(O)c2c(c1)O[C@H](c1cc(O)c(O)c(O)c1)[C@H](OC(=O)c1cc(O)c(O)c(O)c1)C2` [Compound 70, (2R,3R)-7-((ethylcarbamoyl)oxy)-5-hydroxy-2-(3,4,5-trihydroxyphenyl)chroman-3-yl 3,4,5-trihydroxybenzoate], for which the IC50 was greater than 0.1 µM.

`Nc1ncc(C(=O)O[C@@H]2Cc3c(O)cc(O)cc3O[C@H]2c2cc(O)c(O)c(O)c2)cc1O` [Compound 36, (2S,3R)-5,7-dihydroxy-2-(3,4,5-trihydroxyphenyl)chroman-3-yl 6-amino-5-hydroxynicotinate]: the IC50 is greater than 1 µM.

In the case of `O=C(O[C@@H]1Cc2ccccc2O[C@H]1c1cc(O)c(O)c(O)c1)c1cc(O)c(O)c(O)c1` [Compound 39, (2S,3R)-2-(3,4,5-trihydroxyphenyl)chroman-3-yl 3,4,5-trihydroxybenzoate], the IC50 is greater than 0.1 µM.

As for `COc1cc(C(=O)N[C@H]2Cc3c(O)cc(O)cc3O[C@@H]2c2cc(O)c(O)c(O)c2)cc(O)c1O` [Compound 10, N-((2R,3S)-5,7-dihydroxy-2-(3,4,5-trihydroxyphenyl)chroman-3-yl)-3,4-dihydroxy-5-methoxybenzamide], the IC50 is greater than 1 µM.

With `O=C(O[C@@H]1Cc2c(O)cc(O)cc2O[C@H]1c1cc(O)c(O)c(O)c1F)c1cc(O)c(O)c(O)c1` [Compound 46, (2S,3R)-2-(2-fluoro-3,4,5-trihydroxyphenyl)-5,7-dihydroxychroman-3-yl 3,4,5-trihydroxybenzoate], the concentration for half-maximal inhibition (IC50) was less than 0.1 µM.

With `O=C(O[C@H]1Cc2c(O)cc(O)cc2O[C@@H]1c1ccc(O)c(O)c1)c1ccc(O)c(O)c1` [Compound 28, (2R,3S)-2-(3,4-dihydroxyphenyl)-5,7-dihydroxychroman-3-yl 3,4-dihydroxybenzoate], the IC50 was greater than 1 µM.

In the case of `O=C(O[C@@H]1Cc2c(O)cc(O)cc2O[C@H]1c1cc(O)c(O)c(O)c1)c1cc(O)c(O)c(OC(F)F)c1` [Compound 60, (2S,3R)-5,7-dihydroxy-2-(3,4,5-trihydroxyphenyl)chroman-3-yl 3-(difluoromethoxy)-4,5-dihydroxybenzoate], the 50% inhibitory concentration (IC50) was greater than 0.1 µM.

`O=C(O[C@@H]1Cc2c(O)cc(O)cc2O[C@@H]1c1cc(O)c(O)c(O)c1)c1ccc(O)c(O)c1` [Compound 11, (2R,3R)-5,7-dihydroxy-2-(3,4,5-trihydroxyphenyl)chroman-3-yl 3,4-dihydroxybenzoate]: the IC50 was greater than 0.1 µM.

`O=C(O[C@@H]1Cc2c(O)cc(O)cc2O[C@H]1c1cc(O)c(O)c(O)c1F)c1cc(O)c(O)c(O)c1F` [Compound 47, (2S,3R)-2-(2-fluoro-3,4,5-trihydroxyphenyl)-5,7-dihydroxychroman-3-yl 2-fluoro-3,4,5-trihydroxybenzoate]: the IC50 is less than 0.1 µM.

Consider `O=C(O[C@@H]1Cc2c(O)cc(O)cc2O[C@H]1c1cc(O)c(O)c(O)c1)c1cc(O)c(O)cc1F` [Compound 41, (2S,3R)-5,7-dihydroxy-2-(3,4,5-trihydroxyphenyl)chroman-3-yl 2-fluoro-4,5-dihydroxybenzoate], for which the IC50 is greater than 0.1 µM.

Take `O=C(O[C@@H]1Cc2c(O)cc(O)cc2O[C@@H]1c1cc(O)c(O)c(O)c1)c1ccc(O)cc1` [Compound 21, (2R,3R)-5,7-dihydroxy-2-(3,4,5-trihydroxyphenyl)chroman-3-yl 4-hydroxybenzoate]: the concentration for half-maximal inhibition (IC50) was greater than 1 µM.

Consider `CCNC(=O)Oc1cc(C(=O)O[C@@H]2Cc3c(O)cc(O)cc3O[C@@H]2c2cc(O)c(O)c(O)c2)cc(O)c1O` [Compound 12, (2R,3R)-5,7-dihydroxy-2-(3,4,5-trihydroxyphenyl)chroman-3-yl 3-((ethylcarbamoyl)oxy)-4,5-dihydroxybenzoate], for which the IC50 is greater than 0.1 µM.

Consider `O=C(O[C@@H]1Cc2c(O)cc(O)cc2O[C@H]1c1cc(O)c(O)c(O)c1)c1ccc(O)c(O)c1` [Compound 34, (2S,3R)-5,7-dihydroxy-2-(3,4,5-trihydroxyphenyl)chroman-3-yl 3,4-dihydroxybenzoate], for which the IC50 was greater than 0.1 µM.

On to `COc1c(O)c(O)cc(C(=O)O[C@@H]2Cc3c(O)cc(O)cc3O[C@H]2c2cc(O)c(O)c(O)c2)c1F` [Compound 50, (2S,3R)-5,7-dihydroxy-2-(3,4,5-trihydroxyphenyl)chroman-3-yl 2-fluoro-4,5-dihydroxy-3-methoxybenzoate], for which the IC50 is greater than 0.1 µM.

On to `O=C(O[C@H]1Cc2c(O)cc(O)cc2O[C@@H]1c1cc(O)c(O)c(O)c1)c1ccncc1` [Compound 22, (2R,3S)-5,7-dihydroxy-2-(3,4,5-trihydroxyphenyl)chroman-3-yl isonicotinate], for which the IC50 is greater than 1 µM.

Take `O=C(N[C@H]1Cc2c(O)cc(O)cc2O[C@@H]1c1cc(O)c(O)c(O)c1)c1cc(O)c(O)c(O)c1` [Compound 9, N-((2R,3S)-5,7-dihydroxy-2-(3,4,5-trihydroxyphenyl)chroman-3-yl)-3,4,5-trihydroxybenzamide]: the IC50 was greater than 0.1 µM.

In the case of `O=C(N[C@H]1Cc2c(O)cc(O)cc2O[C@@H]1c1cc(O)c(O)c(O)c1)c1ccc(O)cc1` [Compound 16, N-((2R,3S)-5,7-dihydroxy-2-(3,4,5-trihydroxyphenyl)chroman-3-yl)-4-hydroxybenzamide], the IC50 was greater than 1 µM.

With `O=C(O[C@@H]1Cc2c(O)cc(O)cc2O[C@@H]1c1cc(O)c(O)c(O)c1)c1ccncc1` [Compound 23, (2R,3R)-5,7-dihydroxy-2-(3,4,5-trihydroxyphenyl)chroman-3-yl isonicotinate], the half-inhibitory concentration (IC50) was greater than 1 µM.

For `O=C(O[C@@H]1Cc2c(O)cc(O)cc2O[C@H]1c1cc(O)c(O)c(O)c1)c1cc(O)c(O)cc1C(F)(F)F` [Compound 62, (2S,3R)-5,7-dihydroxy-2-(3,4,5-trihydroxyphenyl)chroman-3-yl 4,5-dihydroxy-2-(trifluoromethyl)benzoate], the IC50 is greater than 0.1 µM.

Regarding `CCNC(=O)Oc1c(O)cc([C@H]2Oc3cc(O)cc(O)c3C[C@H]2OC(=O)c2cc(O)c(O)c(O)c2)cc1O` [Compound 72, (2R,3R)-2-(4-((ethylcarbamoyl)oxy)-3,5-dihydroxyphenyl)-5,7-dihydroxychroman-3-yl 3,4,5-trihydroxybenzoate], the IC50 was greater than 0.1 µM.

What is called IC50 is the concentration that gives 50% inhibition.
